Data on 34 compounds can be found in patent US8329755B2, “Methods for treating retroviral infections” (Roche Palo Alto LLC, priority 2004, dated 2012).

For orientation: melting point means the temperature, or range, at which the solid turns liquid. Compound `Cc1cc(S(N)(=O)=O)ccc1NC(=O)Cc1ccc(Cl)c(Oc2cc(C#N)cc(C(C)(F)F)c2)c1F` [Compound I-96, 2-{4-Chloro-3-[3-cyano-5-(1,1-difluoro-ethyl)-phenoxy]-2-fluoro-phenyl}-N-(2-methyl-4-sulfamoyl-phenyl)-acetamide] yielded a melting point of 198.5 to 201 °C.

For `COCCC(=O)N(C)S(=O)(=O)c1ccc(NC(=O)Cc2ccc(Cl)c(Oc3cc(Cl)cc(C#N)c3)c2F)c(Cl)c1` [Compound I-172, 2-[4-Chloro-3-(3-chloro-5-cyano-phenoxy)-2-fluoro-phenyl]-N-{2-chloro-4-[(3-methoxy-propionyl)-methyl-sulfamoyl]-phenyl}-acetamide], the melting point lay within 199.3 to 203 °C.

`COc1ccc(CC(=O)Nc2ccc(S(N)(=O)=O)cc2Cl)cc1Oc1cc(Cl)cc(C#N)c1` [Compound I-64, 2-[3-(3-Chloro-5-cyano-phenoxy)-4-methoxy-phenyl]-N-(2-chloro-4-sulfamoyl-phenyl)-acetamide] yielded a melting point of 186.3 to 189.7 °C.

For `Cl.N#Cc1cc(Cl)cc(Oc2c(Cl)ccc(CC(=O)Nc3ccc(S(=O)(=O)NC(=O)CCN)cc3Cl)c2F)c1`, the melting point was in the range of 199.3 to 199.6 °C.

Turning to `Cc1cc(C(=O)CN2CCN(C)CC2)ccc1NC(=O)Cc1ccc(C)c(Oc2cc(Cl)cc(C#N)c2)c1` [Compound I-159, 2-[3-(3-Chloro-5-cyano-phenoxy)-4-methyl-phenyl]-N-{2-methyl-4-[2-(4-methyl-piperazin-1-yl)-acetyl]-phenyl}-acetamide], the melting point was 62.3 to 64.1 °C.

Compound `COCC(=O)NS(=O)(=O)c1ccc(NC(=O)Cc2ccc(Cl)c(Oc3cc(Cl)cc(C#N)c3)c2F)c(Cl)c1.[Na]` displayed a melting point of 151.7 to 152.3 °C.

With `CCc1ccc(CC(=O)Nc2ccccc2Cl)cc1Oc1cc(Cl)ccc1Cl` [Compound I-21, N-(2-Chloro-phenyl)-2-[3-(2,5-dichloro-phenoxy)-4-ethyl-phenyl]-acetamide], the melting point was 146.3 to 147.1 °C.

`CSc1nc(NC(=O)Cc2ccc(C)c(Oc3cc(Cl)cc(C#N)c3)c2)n(C)n1` [Compound I-230, 2-[3-(3-Chloro-5-cyano-phenoxy)-4-methyl-phenyl]-N-(2-methyl-5-methylsulfanyl-2H-[1,2,4]triazol-3-yl)-acetamide] returned a melting point of 173 to 174 °C.

As to `N#Cc1cc(C#N)cc(Oc2cc(CC(=O)Nc3ccc(S(N)(=O)=O)cc3)ccc2Cl)c1` [Compound I-2, 2-[4-Chloro-3-(3,5-dicyano-phenoxy)-phenyl]-N-(4-sulfamoyl-phenyl)-acetamide], the melting point was 218 to 219 °C.

On to `NS(=O)(=O)c1ccc(NC(=O)Cc2cc(Oc3cc(Cl)cc(Cl)c3)c3occc3c2)c(Cl)c1` [Compound I-149, N-(2-Chloro-4-sulfamoyl-phenyl)-2-[7-(3,5-dichloro-phenoxy)-benzofuran-5-yl]-acetamide], for which the melting point was 215.1 to 216.6 °C.

On to `CCc1cc(CC(=O)Nc2ccc(S(N)(=O)=O)cc2Cl)cc(Oc2cc(C#N)ccc2Cl)c1` [Compound I-107, 2-[3-(2-Chloro-5-cyano-phenoxy)-5-ethyl-phenyl]-N-(2-chloro-4-sulfamoyl-phenyl)-acetamide], for which the melting point was 204 to 207 °C.

Turning to `CCc1ccc(CC(=O)Nc2ccc(S(N)(=O)=O)cc2C)cc1Oc1cc(C#N)cc(C#N)c1Cl` [Compound I-53, 2-[3-(2-Chloro-3,5-dicyano-phenoxy)-4-ethyl-phenyl]-N-(2-methyl-4-sulfamoyl-phenyl)-acetamide], the melting point lay in the range of 199.4 to 205.3 °C.

Consider `COc1cc(CC(=O)Nc2ccc(S(N)(=O)=O)cc2)cc(Oc2cc(C#N)ccc2Cl)c1` [Compound I-102, 2-[3-(2-Chloro-5-cyano-phenoxy)-5-methoxy-phenyl]-N-(4-sulfamoyl-phenyl)-acetamide], for which the melting point lay in the range of 180.5 to 181.3 °C.

`Cc1cc(NC(=O)Cc2ccc(C)c(Oc3cc(Cl)cc(C#N)c3)c2)n(C)n1` [Compound I-226, 2-[3-(3-Chloro-5-cyano-phenoxy)-4-methyl-phenyl]-N-(2,5-dimethyl-2H-pyrazol-3-yl)-acetamide] showed a melting point of 155.6 to 159 °C.

Compound `Cc1cc(CC(=O)Nc2ccc(S(N)(=O)=O)cc2)cc(Oc2cc(C#N)ccc2Cl)c1` [Compound I-146, 2-[3-(2-Chloro-5-cyano-phenoxy)-5-methyl-phenyl]-N-(4-sulfamoyl-phenyl)-acetamide] gave a melting point of 235.9 to 236.7 °C.

With `CCCC(=O)NS(=O)(=O)c1ccc(NC(=O)Cc2ccc(Cl)c(Oc3cc(Cl)cc(C#N)c3)c2F)c(Cl)c1.[Na]` [Compound I-138, N-(4-Butyrylsulfamoyl-2-chloro-phenyl)-2-[4-chloro-3-(3-chloro-5-cyano-phenoxy)-2-fluoro-phenyl]-acetamide; sodium salt], the melting point was 157.2 to 157.9 °C.

In turn, `COc1ccc(CC(=O)Nc2ccc(S(N)(=O)=O)cc2C)cc1Oc1cc(C#N)ccc1Cl` [Compound I-66, 2-[3-(2-Chloro-5-cyano-phenoxy)-4-methoxy-phenyl]-N-(2-methyl-4-sulfamoyl-phenyl)-acetamide] gave a melting point of 232.9 to 236.9 °C.

As to `CCc1ccc(CC(=O)Nc2ccccc2Cl)cc1Oc1cc(C#N)cc(F)c1Cl` [Compound I-59, 2-[3-(2-Chloro-5-cyano-3-fluoro-phenoxy)-4-ethyl-phenyl]-N-(2-chloro-phenyl)-acetamide], the melting point is 142.1 to 142.8 °C.

`COc1ccc(CC(=O)Nc2ccc(S(N)(=O)=O)cc2)cc1Oc1cc(Cl)cc(C#N)c1` [Compound I-57, 2-[3-(3-Chloro-5-cyano-phenoxy)-4-methoxy-phenyl]-N-(4-sulfamoyl-phenyl)-acetamide] came in with a melting point of 218.3 to 221.4 °C.

Regarding `CCOC(=O)C(=O)Nc1ccc(NC(=O)Cc2ccc(C)c(Oc3cc(Cl)cc(C#N)c3)c2)c(C)c1` [Compound I-178, N-(4-{2-[3-(3-Chloro-5-cyano-phenoxy)-4-methyl-phenyl]-acetylamino}-3-methyl-phenyl)-oxalamic acid ethyl ester], the melting point was in the range of 182.5 to 183.9 °C.

The compound `Cc1ccc(CC(=O)Nc2ccc(CC(=O)O)cc2Cl)cc1Oc1cc(Cl)cc(C#N)c1` [Compound I-236, (3-Chloro-4-{2-[3-(3-chloro-5-cyano-phenoxy)-4-methyl-phenyl]-acetylamino}-phenyl)-acetic acid] displayed a melting point of 159.6 to 160 °C.

Take `Cc1cc(CC(=O)Nc2ccc(S(N)(=O)=O)cc2)cc(Oc2cc(Cl)cc(C#N)c2)c1C` [Compound I-182, 2-[3-(3-Chloro-5-cyano-phenoxy)-4,5-dimethyl-phenyl]-N-(4-sulfamoyl-phenyl)-acetamide]: the melting point lay within 229.7 to 231.3 °C.

As to `COc1ccc(CC(=O)Nc2ccc(S(N)(=O)=O)cc2Cl)cc1Oc1cc(C#N)ccc1Cl` [Compound I-67, 2-[3-(2-Chloro-5-cyano-phenoxy)-4-methoxy-phenyl]-N-(2-chloro-4-sulfamoyl-phenyl)-acetamide], the melting point fell in the range of 214.6 to 216.4 °C.

Take `Cc1cc(S(N)(=O)=O)ccc1NC(=O)Cc1ccc(C)c(Oc2cc(C#N)cc(C#N)c2)c1` [Compound I-43, 2-[3-(3,5-Dicyano-phenoxy)-4-methyl-phenyl]-N-(2-methyl-4-sulfamoyl-phenyl)-acetamide]: the melting point fell in the range of 228.6 to 230.9 °C.

In the case of `Cc1cc(CC(=O)Nc2ccccc2Cl)cc(C(=O)c2cc(Cl)cc(Cl)c2)c1` [Compound I-231, N-(2-Chloro-phenyl)-2-[3-(3,5-dichloro-benzoyl)-5-methyl-phenyl]-acetamide], the melting point lay within 142 to 146.2 °C.

`CCc1ccc(CC(=O)Nc2ccc(S(N)(=O)=O)cc2C)cc1Oc1cc(Cl)cc(Br)c1Cl` [Compound I-36, 2-[3-(3-Bromo-2,5-dichloro-phenoxy)-4-ethyl-phenyl]-N-(2-methyl-4-sulfamoyl-phenyl)-acetamide] showed a melting point of 213.2 to 219.6 °C.

`CNS(=O)(=O)c1ccc(NC(=O)Cc2ccc(Cl)c(Oc3cc(Cl)cc(C#N)c3)c2F)c(C)c1` [Compound I-108, 2-[4-Chloro-3-(3-chloro-5-cyano-phenoxy)-2-fluoro-phenyl]-N-(2-methyl-4-methylsulfamoyl-phenyl)-acetamide] showed a melting point of 204.4 to 207.3 °C.

In turn, `Cc1cc(OCC[C@@H](O)CO)ccc1NC(=O)Cc1ccc(C)c(Oc2cc(Cl)cc(C#N)c2)c1` [Compound I-151, 2-[3-(3-Chloro-5-cyano-phenoxy)-4-methyl-phenyl]-N-[4-((R)-3,4-dihydroxy-butoxy)-2-methyl-phenyl]-acetamide] registered a melting point of 104.9 to 106.4 °C.

On to `Cc1cc(CC(=O)Nc2ccc(S(N)(=O)=O)cc2C)cc(Oc2cc(Cl)cc(C#N)c2)c1` [Compound I-142, 2-[3-(3-Chloro-5-cyano-phenoxy)-5-methyl-phenyl]-N-(2-methyl-4-sulfamoyl-phenyl)-acetamide], for which the melting point fell in the range of 184.8 to 186 °C.

In turn, `N#Cc1cc(Cl)cc(Oc2c(Br)ccc(CC(=O)Nc3ccc(S(N)(=O)=O)cc3Cl)c2F)c1` [Compound I-109, 2-[4-Bromo-3-(3-chloro-5-cyano-phenoxy)-2-fluoro-phenyl]-N-(2-chloro-4-sulfamoyl-phenyl)-acetamide] displayed a melting point of 165 to 166.6 °C.

For the compound `COc1ccc(CC(=O)Nc2ccc(S(N)(=O)=O)cc2C)cc1C(=O)c1cc(Br)ccc1Cl` [Compound I-264, 2-[3-(5-Bromo-2-chloro-benzoyl)-4-methoxy-phenyl]-N-(2-methyl-4-sulfamoyl-phenyl)-acetamide], the melting point lay within 177 to 177.9 °C.

Take `N#Cc1cc(Cl)cc(Oc2cc(CC(=O)Nc3ccc(S(N)(=O)=O)cc3)ccc2Cl)c1` [Compound I-1, 2-[4-Chloro-3-(3-chloro-5-cyano-phenoxy)-phenyl]-N-(4-sulfamoyl-phenyl)-acetamide]: the melting point was in the range of 210.5 to 214 °C.

Take `CCC(=O)N(C)S(=O)(=O)c1ccc(NC(=O)Cc2ccc(Cl)c(Oc3cc(Cl)cc(C#N)c3)c2F)c(C)c1` [Compound I-99, 2-[4-Chloro-3-(3-chloro-5-cyano-phenoxy)-2-fluoro-phenyl]-N-[2-methyl-4-(methyl-propionyl-sulfamoyl)-phenyl]-acetamide]: the melting point lay in the range of 212 to 216.9 °C.

On to `CCc1ccc(CC(=O)Nc2ccccc2)cc1Oc1cc(C#N)cc(C#N)c1Cl` [Compound I-208, 2-[3-(2-Chloro-3,5-dicyano-phenoxy)-4-ethyl-phenyl]-N-phenyl-acetamide], for which the melting point is 189.3 to 192.3 °C.
